In brackets after ≈: the same amount, converted by molar mass.
Conditions: buffer; pH 7.4; 6.0 h; 150.0 µM

SMILES | solubility kinetic
c1cn2cc(-c3ccc4cn[nH]c4c3)nc(Nc3ccc(N4CCOCC4)cc3)c2n1 | < 1 µg/mL
CCN(CC)C(=O)N1c2ccccc2C=Cc2ccccc21 | 15.9 µg/mL (≈ 54.5 µM)
CCOc1ccc(N2C(=O)c3n[nH]c(-c4cccs4)c3C2c2cccc(F)c2)cc1 (centres undefined) | < 1 µg/mL
Cc1ccc(N2CCC(CNc3nc(-c4ccccc4C(C)C)ncc3F)CC2)cn1 | 7.65 µg/mL (≈ 18.2 µM)
O=C(O)c1ccnc2cc(C(OCC3CCC(F)(F)CC3)c3ccccc3Cl)[nH]c12 (centres undefined) | > 64 µg/mL
O=C(Nc1ccc([N+](=O)[O-])cc1Cl)c1cc(Cl)ccc1O | 1.14 µg/mL (≈ 3.47 µM)
CN(C)C(=O)c1cc2cnc(Nc3ccc(N4CCNCC4)cn3)nc2n1C1CCCC1 | > 64 µg/mL
Cc1nn(CCc2nc(-c3ccc4ccccc4c3)cs2)c2[nH]c(=O)cc(C(F)(F)F)c12 | < 1 µg/mL
CN(C)c1cccc(-c2ccnc(N3CCC(C(N)=O)CC3)n2)c1 | 39.1 µg/mL (≈ 120 µM)
O=C(Nc1ccc(S(=O)(=O)Nc2nccs2)cc1)c1cc(-c2ccccc2)nc2ccccc12 | 0.098 µg/mL (≈ 0.201 µM)
CCOc1ccc(CCNC(=O)c2cc3ccccc3n2Cc2cccc(C)n2)cc1OCC | < 1 µg/mL
Ic1ccccc1CNC1C2CCN(CC2)C1C(c1ccccc1)c1ccccc1 (centres undefined) | > 75 µg/mL
CN(C(=O)COC(=O)c1csc(NCc2ccccc2)n1)c1ccccc1 | 26.4 µg/mL (≈ 69.1 µM)
CN(C)S(=O)(=O)c1cccc(NC(=O)c2ccc[nH]2)c1 | 13.3 µg/mL (≈ 45.2 µM)
CCc1ccc(NC(=O)c2[nH]c(C)c(C(C)=O)c2C)cc1[S+](=O)([O-])N1CCCCCC1 | 1.19 µg/mL (≈ 2.67 µM)
COc1cccc(CNc2ccc(S(=O)(=O)Nc3nc(C)cs3)cc2)c1O | 42.7 µg/mL (≈ 105 µM)
NC(=O)C1CCN(c2nc(-c3ccc(Cl)cc3)cs2)CC1 | 1.52 µg/mL (≈ 4.72 µM)
COc1cc2c3cc1Oc1c(O)c(OC)cc4c1[C@@H](Cc1ccc(cc1)Oc1cc(ccc1O)C[C@H]3N(C)CC2)N(C)CC4 | > 88 µg/mL
CC(C)NC(=O)N1C[C@@H]2C[C@H](C1)c1ccc(-c3cccc(C(F)(F)F)c3)c(=O)n1C2 | > 93 µg/mL
COC(=O)c1c(NC(=O)Cc2coc3cc(C)ccc23)sc2c1CCC2 | < 1 µg/mL
Cn1cc(Nc2cnccc2C(=O)O)c2cccnc21 | 32.6 µg/mL (≈ 122 µM)
O=C(c1nc(-c2ccc(Cl)cc2Cl)c2cnccn12)N1CCOCC1 | 20.2 µg/mL (≈ 53.6 µM)
Cc1cccc(OCC(=O)Nc2ccc3nc(Nc4cccc(Cl)c4)cc(C)c3c2)c1 | < 1 µg/mL
Cc1ccccc1C(=O)N1CCc2cc(-c3ccnc(NC(=O)Cc4ccccc4)n3)ccc21 | 6.19 µg/mL (≈ 13.8 µM)
CCOC(=O)c1ccc(N2C(=O)c3[nH]nc(-c4ccc(OC)cc4)c3C2c2ccc(C)cc2)cc1 (centres undefined) | < 1 µg/mL

SMILES | solubility kinetic
CCCN(C(=O)c1sc2nc3n(c(=O)c2c1C)CCCC3)c1ccccc1C | 1.83 µg/mL (≈ 4.64 µM)
CCCCn1cnc2cc(NCc3ccc(OCC)cc3)ccc21 | 10.1 µg/mL (≈ 31.2 µM)
Nc1nc(Nc2ccc(S(N)(=O)=O)cc2)n(C(=S)Nc2c(F)cccc2F)n1 | < 1 µg/mL
Cc1ccnc(NC(=O)C2CC(=O)N(c3n[nH]c4cc(Br)ccc34)C2)c1 (centres undefined) | < 1 µg/mL
Cc1ccc(-c2cc(C(=O)NC3CCCCC3)c3ccccc3n2)cc1 | < 1 µg/mL
COC[C@@H]1CN(C(=O)c2nn(C)c3ccccc23)C[C@H]1c1nc(C)no1 | > 100 µg/mL
c1ccc(-c2csc3ncnc(Sc4nnn(-c5ccccc5)n4)c23)cc1 | < 1 µg/mL
CCc1ccccc1-n1c(SCC(=O)Nc2ccc(C)cc2)nc2n[nH]c(C)c2c1=N | < 1 µg/mL
O=C(CCCCn1c(=O)[nH]c2ccsc2c1=O)N1CCN(c2cccc(Cl)c2)CC1 | 11.9 µg/mL (≈ 26.7 µM)
O=C1CCc2cc(S(=O)(=O)Nc3ccc(F)c(Cl)c3)c(F)cc2N1 | 13.4 µg/mL (≈ 35.9 µM)
CCN(c1cc(C#CCN2CCOCC2)cc(C(=O)NCc2c(C)cc(C)[nH]c2=O)c1C)C1CCC(N(C)CCOC)CC1 (centres undefined) | > 89 µg/mL
CN(c1ncccc1CNc1nc(Nc2ccc3c(c2)CC(=O)N3)ncc1C(F)(F)F)S(C)(=O)=O | 51.7 µg/mL (≈ 102 µM)
Nc1ccc(-c2cccc3c(=O)cc(N4CCOCC4)oc23)cc1 | > 48 µg/mL
O=C(Cc1ccc(Cl)c(Cl)c1)Nc1ccc(S(=O)(=O)Nc2cccc(O)c2)cc1 | < 1 µg/mL
O=C(Nc1nnc(C2CCCCC2)s1)c1ccc(Br)s1 | < 1 µg/mL
OCc1ccc(-c2cc3c(ccn3Cc3cccnc3)c(C3=CCOCC3)n2)cc1 | 54.9 µg/mL (≈ 138 µM)
Cc1ccc(-c2cc(C(=O)NCc3ccc(S(N)(=O)=O)cc3)c3ccccc3n2)cc1C | < 1 µg/mL
Cc1cnc(-c2ccccc2C(F)F)nc1NCC1CN(c2cnccn2)C1 | > 56 µg/mL
Cc1cccc(-n2ccc(=O)c(C(=O)Nc3ccc(S(=O)(=O)Nc4nccs4)cc3)n2)c1 | < 1 µg/mL
NC(=O)C1CCN(c2nc(-c3cccc(Cl)c3)cs2)CC1 | 10.6 µg/mL (≈ 32.9 µM)
Cl.N=c1c2c(n(Cc3ccccc3)c3c1CCC3)CCC2 | > 39 µg/mL
Cc1ccc(S(=O)(=O)Nc2cnccc2C(=O)Nc2ccccc2)cc1 | > 54 µg/mL
COc1ccc(C(=O)Nc2ccc3c(c2)N(C2CCCC2)C(=O)c2ccccc2S3)cc1OC | < 1 µg/mL
Cc1ccc(Nc2nc(NCCO)c3ccccc3n2)cc1C.Cl | 28.1 µg/mL
O=C1CCCC2=C1C(c1ccccc1Cl)N=C(Nc1nc3ccccc3o1)N2 (centres undefined) | < 1 µg/mL

SMILES | solubility kinetic
c1c[nH]c(C2CCN(c3ncc(-c4ccc5c(c4)OCCCO5)s3)CC2)n1 | 4.09 µg/mL (≈ 10.7 µM)
COc1cc(Cl)ccc1C(=O)Nc1nc(-c2ccccc2)cs1 | < 1 µg/mL
Cc1c(CN(C)c2cc(C3CC(O)C3)nc(N)n2)[nH]c2ccccc12 (centres undefined) | > 50 µg/mL
COc1ccc(CNC(=O)c2cnc3ccccc3n2)cc1 | 36.1 µg/mL (≈ 123 µM)
COc1cc(NS(=O)(=O)c2ccc(C)cc2)cc(C(=O)Nc2nc(-c3ccccc3)cs2)c1 | < 1 µg/mL
O=C(NC(c1ccccc1)c1cc(Cl)c2cccnc2c1O)c1cccnc1 (centres undefined) | < 1 µg/mL
CCCCN(CC)CCNC(=O)c1cc2c(-c3ccc(Cl)cc3)nn(C)c2s1 | > 62 µg/mL
O=c1cc(-c2ccc(O)c(O)c2)oc2cc(O)cc(O)c12 | > 100 µg/mL
Br.CC(Cc1ccc(O)cc1)NCC(O)c1cc(O)cc(O)c1 (centres undefined) | > 45 µg/mL
O=C(NC1CCCN(c2cc(-c3ccc(F)cc3)[nH]n2)C1)c1ccc2ncccc2c1 (centres undefined) | 12.5 µg/mL (≈ 30.2 µM)
COc1cccc(C(=O)Nc2ccc([S+](=O)([O-])Nc3nccs3)cc2)c1O | 2.23 µg/mL (≈ 5.5 µM)
COc1ccccc1-c1cc2c(ccn2C)c(C(=O)NCC2CCN(C)C(=O)C2)n1 (centres undefined) | > 90 µg/mL
O=C(NCc1ccncc1)c1nc(-c2cccnc2)c2cnccn12 | 40.8 µg/mL (≈ 124 µM)
Fc1ccc(CNc2nc(-c3ccncc3)nc3ccccc23)cc1F | < 1 µg/mL
O=C(NCc1ccc(N2CCCC2)nc1)c1cc(Cl)ccc1O | 1.3 µg/mL (≈ 3.93 µM)
COc1ccccc1C(=O)Nc1nc2nc(C)cc(=O)n2[nH]1 | > 44 µg/mL
O=C1Nc2ccccc2/C1=C/c1cc(Cl)c(O)c(Cl)c1 | > 45 µg/mL
Cc1ccc(-c2csc(Nc3ccc(S(=O)(=O)Nc4nccs4)cc3)n2)cc1C | < 1 µg/mL
Cc1ccccc1C(=O)N1CCc2cc(-c3nc(NC(=O)Cc4ccccc4)sc3C)ccc21 | < 1 µg/mL
CC(C)(C)OC(=O)N1CCN(c2ccc(NCc3ccc(-c4ccc(C#N)cc4)o3)cc2)CC1 | 9.31 µg/mL (≈ 20.3 µM)
COc1cccc(C(=O)Nc2ccc3c(N4CCOCC4)ncnc3c2)c1 | > 54 µg/mL
CCC(CC)c1cc([C@H]2CN3CC[C@H]2C[C@@H]3CNS(=O)(=O)c2cccs2)nc(-c2ccncc2)n1 | 52.2 µg/mL (≈ 102 µM)
Oc1cccc(-c2nc(N3CCOCC3)c3oc4ncccc4c3n2)c1 | < 1 µg/mL
Cc1cc(C)c(C(=O)Nc2cccc([S+](=O)([O-])Nc3ccc(Br)cc3)c2)[nH]1 | < 1 µg/mL
C[C@]1(CO)CN(c2cc(C(=O)Nc3ccc4c(c3)-c3c(c(C(N)=O)nn3-c3ccc(F)cc3)CC4)c(Cl)cn2)C[C@@]1(C)CO | 18.5 µg/mL (≈ 29.8 µM)

SMILES | solubility kinetic
COc1ccc(Nc2cc(C)nc(-n3nc(C)cc3C)n2)cc1Cl | 3.58 µg/mL (≈ 10.4 µM)
Cc1ccccc1-c1nc(NCc2ccc(-c3cccnc3)cc2)c2ccccc2n1 | < 1 µg/mL
Cc1ccc(S(=O)(=O)Nc2cnccc2C(=O)Nc2nc(-c3ccc(F)cc3)cs2)cc1 | < 1 µg/mL
Fc1ccc(-c2ccc(Nc3nc(-c4ccncc4)nc4ccccc34)cc2F)c(F)c1 | < 1 µg/mL
Fc1cc(Nc2nc(-c3ccncc3)nc3ccccc23)ccc1-c1cccnc1 | < 1 µg/mL
Fc1cc(Nc2nc(-c3ccncc3)nc3ccccc23)ccc1N1CCCC1 | < 1 µg/mL
CSc1ccc(-c2cnc(N3CCC(C(N)=O)CC3)s2)cc1 | < 1 µg/mL
COc1cccc(CNc2ccc(S(=O)(=O)Nc3ccc(C4CCNCC4)cc3)cc2)c1O | 58.4 µg/mL (≈ 125 µM)
CC(C)c1ccc(Nc2c(-c3ccccn3)nc3ccccn23)cc1 | < 1 µg/mL
Cc1ccc(Cl)cc1NS(=O)(=O)c1cc2c(cc1F)NC(=O)CC2 | 1.76 µg/mL (≈ 4.79 µM)
COc1cccc(CNc2ccc(S(=O)(=O)Nc3nc4ccccc4[nH]3)cc2)c1O | 2.59 µg/mL (≈ 6.1 µM)
COc1ccc(Nc2nc(-c3ccncc3)nc3ccccc23)cc1F | < 1 µg/mL
Cc1cnc(-c2ccccc2C(C)C)nc1NCC1CCN(c2cccnc2)C1 (centres undefined) | 7.52 µg/mL (≈ 19.4 µM)
CN1CCCC1CCOC(c1cc2nccc(C(=O)O)c2[nH]1)c1ccccc1Cl (centres undefined) | > 61 µg/mL
COc1cccc(CNc2ccc(S(=O)(=O)Nc3nccs3)cc2)c1 | 27.2 µg/mL (≈ 72.5 µM)
CC(C)(C)OC(=O)NC1CCN(c2nc(-c3ccc(Br)cc3)cs2)CC1 | 6.48 µg/mL (≈ 14.8 µM)
O=C(NCCCn1ccnc1)c1ccc(-c2ncc3cnc(-c4cccc(F)c4)cn23)cc1 | 32.5 µg/mL (≈ 73.9 µM)
Cc1sc2c(c1C)C(c1ccc(Cl)cc1)=N[C@H](CC(=O)NCCCCNC(=O)COc1cccc3c1C(=O)N([C@H]1CCC(=O)NC1=O)C3=O)c1nnc(C)n1-2 | 63.8 µg/mL (≈ 81.2 µM)
CN(C)C(=O)NC1CCC(CCN2CCN(c3cccc(Cl)c3Cl)CC2)CC1 (centres undefined) | 34.8 µg/mL (≈ 81.3 µM)
CCc1ccc(C2Sc3ccccc3NC3=C2C(=O)c2ccccc23)cc1 (centres undefined) | < 1 µg/mL
Nc1c(-c2ccncc2)cc[nH]c1=O | 11.8 µg/mL (≈ 63.1 µM)
O=C1CCCC2=C1C(c1ncccc1Br)N=C(Nc1nc3ccccc3o1)N2 (centres undefined) | 7.87 µg/mL (≈ 17.9 µM)
CCOc1cc2c(cc1OCC)CN(C(=O)c1cc3sccc3n1Cc1ccccc1)CC2 | < 1 µg/mL
CCCOC(c1cc2nccc(C(=O)O)c2[nH]1)c1ccccc1Cl (centres undefined) | > 51 µg/mL
